From patent US8138148B2, “GDNF derived peptides” (Copenhagen University, priority 2005, dated 2012)

Assays:
[1] = system: primary hippocampal neurons; test: Neurite outgrowth assay, monocultures of primary hippocampal neurons; format: cell-based, rat; conditions: monoculture, stimulated 24 hours; GDNF 1-100 ng/ml, peptides 0.1-27 μg/ml; versus medium alone
Procedure: (§1) Two different versions of the neurite outgrowth assay were used in this study, monocultures and co-cultures.
(§2) In monocultures, neurons are grown directly on plastic and the only neuritogenic stimulus is the one presented by the added substance. In co-cultures, neurons are grown on top of a confluent monolayer of fibroblasts expressing NCAM-140 (LBN110) or NCAM-negative control fibroblasts (LVN212). NCAM on the neurons interact with NCAM on LBN110 cells thereby stimulating neurite outgrowth from the neurons. This system thus permits the study of NCAM-NCAM interactions and interactions between NCAM and other molecules.
(§3) For all experiments cells were grown in neurobasal medium with supplements as described above in a final volume of 300 μl/well in 8-well LabTek® Permanox Chamber slides or 500 μl/well in 4-well LabTek® Permanox Chamber slides.
For monocultures, primary hippocampal neurons were seeded in 8-well LabTek® Permanox Chamber slides at a density of 10,000 cells/well.
(§4) To evaluate the effect peptides on neurite outgrowth, GDNF and the peptides, G1, G2, G3, A1, A2, A3, N1, N2 and N3 were diluted to the appropriate concentrations and added to the neurons approximately 10 minutes after seeding. Medium alone was added to controls, and cells were incubated for 24 hours.
Neurite outgrowth experiments were terminated after the stated time by fixating the cells. To visualize neurons and their neurites, immunostaining of GAP-43 was performed. This staining is specific for neurons. Transfected cells and their neurites should be visible without immunostaining due to the fluorescence emitted by GFP. […] GFP is a cytoplasmic protein, and since thin neurites only contain a small volume of cytoplasm, GFP is only found in small amounts in most neurites. Therefore, a double-staining protocol, where cells were immunostained against GFP and GAP-43, was adopted. This protocol allowed the identification of transfected cells on the basis of GFP-staining in combination with visualization of neurites based on GAP-43-staining. […]

[2] = system: hippocampal neurons; test: Neurite outgrowth assay, co-cultures of hippocampal neurons on control fibroblasts or NCAM-expressing fibroblasts; format: cell-based, rat; conditions: 24 hours
Procedure: as §1, §2, §3
For cocultures, L-cells were seeded in 8-well LabTek® Permanox Chamber slides at a density of 100.000 cells/well, except for transfection experiments where cells were seeded in 4-well LabTek® Permanox Chamber slides at a density of 200.000 cells/well. L-cells were grown for 24 hours in DMEM supplemented with 10% (v/v) FCS, 1% (v/v) glutamax, 100 U/ml penicillin, 100 μg/ml streptomycin, 2.5 μg/ml fungizone, and 567 μg/ml neomycin (G418), followed by washing twice in neurobasal medium with supplements before primary hippocampal neurons were seeded at a density of 7.000 cells/well in 8-well slides or 20.000 cells/well in 4-well slides.
as §4
Neurite outgrowth experiments were terminated after the stated time by fixating the cells. To visualize neurons and their neurites, immunostaining of GAP-43 was performed. This staining is specific for neurons. Transfected cells and their neurites should be visible without immunostaining due to the fluorescence emitted by GFP. […] GFP is a cytoplasmic protein, and since thin neurites only contain a small volume of cytoplasm, GFP is only found in small amounts in most neurites. Therefore, a double-staining protocol, where cells were immunostained against GFP and GAP-43, was adopted. This protocol allowed the identification of transfected cells on the basis of GFP-staining in combination with visualization of neurites based on GAP-43-staining.
Without prior removal of the medium 300 μl/well (8-well slides) or 500 μl/well (4-well slides) of a PBS solution containing 0.4 mM CaCl2, 0.05 M sucrose and 8% (v/v) formaldehyde was added to the cultures for 20 minutes. Cells were then washed 10 minutes in PBS followed by washing in PBS with 1% (w/v) BSA for 20 minutes, after which cells were incubated with primary antibodies overnight at 4° C.
Rabbit anti-rat GAP-43 antibodies were diluted 1:1000 for staining of untransfected cells and 1:2000 for staining of transfected cells. Mouse anti-GFP antibodies were diluted 1:1000. Antibodies were diluted in a PBS solution containing 7% (v/v) FCS to block unspecific binding, 50 mM glycine to block formaldehyde used for fixation, 0.2% (v/v) saponin to permeabilize cells, and 0.02% (v/v) NaN3 to preserve antibodies for later use.
The next day cells were washed 10 minutes in PBS followed by washing in PBS with 1% (w/v) BSA for 20 minutes. Cells were then incubated with secondary antibodies diluted in PBS with 1% (w/v) BSA for one hour at room temperature. Goat anti-rabbit IgG antibodies conjugated to Alexa 488 were diluted 1:1000 for untransfected cells and 1:2000 for transfected cells. Goat anti-mouse IgG antibodies conjugated to Alexa 546 were diluted 1:1000. Finally cells were washed 3×7 minutes in PBS and mounted with fluorescent mounting medium. […]

[3] = molecular target: T1, GFRα1 receptor (Homo sapiens, UniProt P56159); test: Surface plasmon resonance (SPR) binding analysis, GFRα1; conditions: immobilized receptor protein, 25° C., PBS pH 7.4
T1 sequence (P56159 25-429): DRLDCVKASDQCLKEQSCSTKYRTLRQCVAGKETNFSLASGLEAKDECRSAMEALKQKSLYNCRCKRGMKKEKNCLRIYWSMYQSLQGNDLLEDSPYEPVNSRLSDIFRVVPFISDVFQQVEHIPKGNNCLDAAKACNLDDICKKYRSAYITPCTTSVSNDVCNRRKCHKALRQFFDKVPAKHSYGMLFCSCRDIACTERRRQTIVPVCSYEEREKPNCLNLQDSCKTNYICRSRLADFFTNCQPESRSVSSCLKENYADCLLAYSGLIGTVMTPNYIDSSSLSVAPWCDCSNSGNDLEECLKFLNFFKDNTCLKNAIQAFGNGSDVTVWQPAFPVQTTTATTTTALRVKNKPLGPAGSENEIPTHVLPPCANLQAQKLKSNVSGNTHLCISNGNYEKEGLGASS
Procedure: Analysis of binding was performed employing a BIAcoreX instrument (Biosensor AB, Uppsala, Sweden) at 25° C. using 10 mM pH 7.4 sodium phosphate containing 150 mM NaCl as running buffer (phosphate-buffered saline, PBS). The flow-rate was 5 μl/min. Data were analysed by non-linear curve-fitting using the manufacturer's software. The receptor proteins, e.g. NCAM Ig1-Ig2 and GFR proteins, were immobilized on a sensor chip CM5 using an amine coupling kit (Biosensor AB) as follows: the chip was activated by 20 μl activation solution; the protein was immobilized using 12 μl 20 μg/ml protein in 10 mM sodium phosphate buffer pH 6.0; the chip was blocked by 35 μl blocking solution. Various peptides at the indicated concentrations were injected into the sensor chip. The curve corresponding to the difference between binding to receptor and a blank chip was used for analysis.

Sequence: ETTYDKILKNLSRNR (listed as Homo sapiens) [G2, GDNF fragment]
- neurite outgrowth, overall effect of treatment (one-way ANOVA) [1]: overall statistical significant effect
- neurite outgrowth, overall effect of treatment, neurons grown on NCAM-expressing fibroblasts ([2]; co-culture on NCAM-expressing fibroblasts, GDNF 1-100 ng/ml, peptides 0.1-81 μg/ml): overall significant effect
- neurite outgrowth, overall effect of treatment, neurons grown on control fibroblasts ([2]; co-culture on control fibroblasts, GDNF 1-100 ng/ml, peptides 0.1-81 μg/ml): overall significant effect
- difference between neurite outgrowth on control fibroblasts and on NCAM-expressing fibroblasts across concentrations (one-way ANOVA) ([2]; difference per concentration, expressed as percentage of control): mean differences are not all the same
- binding to the GFRα1 receptor (SPR) [3]: binding
